Results reported in EPA's ToxValDB 9.5 (doi:10.2903/j.efsa.2011.1962).

Assays:
Canidae = details: subchronic; duration: 90 days; oral; Dog Other; histopathology: nonneoplastic
Oryctolagus sp. = details: developmental; development
Lepomis macrochirus = details: chronic/long-term; duration: 28 days; body weight
Daphnia magna = details: chronic/long-term; duration: 21 days; reproduction
Tagia sp. = details: acute; duration: 14 days; mortality
Typhlodromus pyri = assay: LR50; higher = less toxic; details: not reported; mortality

CC(C)C(O)(c1ccc(OC(F)(F)F)cc1)c1cncnc1 (stereo unspecified) [Flurprimidol]
NOAEL (Canidae): 1.5 mg/kg-day
NOAEL (Oryctolagus sp.): 9 mg/kg-day
NOEC (Lepomis macrochirus): 0.42 mg/L
LOAEL (Rattus norvegicus; chronic, duration: 2 years, organ weight): 1 mg/kg-day
NOAEL (Rattus norvegicus; developmental, development): 10 mg/kg-day
NOAEL (Rattus norvegicus; reproduction developmental, reproduction): 1.8 mg/kg-day
NOEL (Rattus norvegicus; short-term, oral, diet, body weight): 1.62 mg/kg-day
NOAEL (Rattus norvegicus; subchronic, duration: 90 days, oral, organ weight): 1.96 mg/kg-day
NOEC (Daphnia magna): 1.7 mg/L
NOEC (Tagia sp.): 62.6 mg/kg
LR50 (Typhlodromus pyri): > 29.6 g/ha
